Consider five compounds from patent US20210323929A1, “Purified Detomidine, Process of Preparing and Methods of Use” (Clexio Biosciences Ltd., priority 2018, published 2021).

Each structure is given as a SMILES string. Read-outs that look alike come from different tables or passages of the source. Where only a bound is given, the exact number is not on record here.

Type in all cases: physicochemical
The nature of data set [1]: Hydration study by DVS analysis (hydration-dehydration cycles versus relative humidity). The procedure: Melting points (m.p.) of the intermediate detomidine free base and hydrochloride of Sample 5 measured in open capillary corresponded with the published literature and the DSC data and are presented in Table 5. In order to evaluate effect of humidity on different forms of detomidine, a hydration study was performed. Samples of detomidine free base and hydrochloride salt were subjected to DVS analysis. These observations are in accordance with the DVS results shown in FIGS. 5 and 6, for detomidine free base and detomidine HCl, respectively.
During the dehydration cycle, the monohydrate began to lose water at RH˜10% and converted into the anhydrate at RH=0%.
At the same time, the anhydrous form is not stable in atmospheric air and absorbs water at RH=30-50%.

The nature of data set [2]: Solid form stability of the vacuum dried anhydrate, hermetically closed or exposed to atmospheric air. As for the experimental part:
The same monohydrate dried at elevated temperature (30-40 mbar 90° C.) converted completely into the anhydrous form.

A short description of data set [3]: Re-slurry in water: conversion of the solid form without complete dissolution. Particulars: contact with water for 24 hrs, re-slurry at 24° C.
The nature of data set [4]: Solubility in water (observation on the solid forms).

`Cc1cccc(Cc2c[nH]cn2)c1C` [Sample 2]: in data set [1] (anhydrous detomidine HCl after hydration), the “water level after absorption, cKF” value is recorded as 7.7%.

With `Cc1cccc(Cc2c[nH]cn2)c1C` [anhydrous form], the “water uptake and form conversion after exposure to atmospheric air” value in data set [2] (after exposure to atmospheric air) is “absorbed water and converted to a mixture of anhydrate and monohydrate”. In data set [2] (vacuum dried, hermetically closed), the “water uptake and form conversion, hermetically closed” value was “did not absorb water from the atmosphere and did not convert into the monohydrate”. Also, the “stability in atmospheric air” value in data set [1] (atmospheric air) is given as “not stable”. For the same compound, in data set [1] (hydration cycle), the “RH at which the anhydrate absorbs water / transforms completely into the monohydrate” value is on record as 30-50% and the “RH at which the anhydrate did not absorb water” value was less than 30%. In data set [3], the “form conversion on contact with water” value was “completely converted”.

For the compound `Cc1cccc(Cc2c[nH]cn2)c1C` [detomidine free base, 4-[(2,3-dimethylphenyl)methyl]-1H-imidazole], the hygroscopicity entry in data set [1] (DVS, 24.4° C. (FIG. 5)) is “non-hygroscopic”. Besides, in data set [1] (at relative humidity (RH)>50%), the water absorbed result is “more than 1%”. The solubility in water entry in data set [4] is listed as “insoluble in water”.

With `Cc1cccc(Cc2c[nH]cn2)c1C.Cl` [detomidine hydrochloride], the “reproducibility of anhydrate-monohydrate interconversion” value in data set [1] (four cycles of hydration-dehydration) is on record as “good reproducibility”. Further, the solubility in water entry in data set [4] (water, hydrochloride formed with aqueous HCl) was “soluble”.

With `Cc1cccc(Cc2c[nH]cn2)c1C` [monohydrate], the “absorption of additional water on increase of humidity” value in data set [1] (RH 70% to RH>90%) is listed as “did not lead to absorption of additional water”. In data set [1] (dehydration cycle), the “RH at which the monohydrate began to lose water” value is recorded as approximately 10% and the “RH at which the monohydrate converted into the anhydrate” value is on record as 0%.
